# Tested on: asthmatic patients
# Assay: sGaw after dry powder inhalation, dose escalating single blind study (Examples 5 and 6)
# Conditions: 1 mg IBMX
# Method: (§1) To test this theory, asthmatic patients are enrolled in a dose escalating single blind study. On arrival to the clinic, subjects are allowed to rest for 20 minutes before baseline measurements of FEV1 (six recordings) and sGaw (five recordings) are made. Subjects receive a dry powder dispenser loaded with a dose of 2 mg theophylline or a dry powder carrier. […] After each inhalation, measurements of sGaw are made at 1, 3, 5, 10, 15, 20, 25, and 30 minutes.
# On completion of the last recording, subjects inhale a 200 μg dose of salbutamol from a metered inhaler and a further measurement of sGaw is made after 15 minutes. Subjects are also monitored for coughing and are questioned about the taste of the drug.
# as §1, with “Asthmatic patients” for “To test this theory, asthmatic patients”, “of 1” for “of 2”, “mg IBMX formulated as a dry powder” for “mg theophylline”
# On completion of the last recording, subjects inhale a 200 μg dose of salbutamol from a metered inhaler and a further measurement of sGaw mad after 15 minutes. Subjects are also be monitored for coughing and are questioned about the taste of the drug.
compound,measurement,value
"CC(C)Cn1c(=O)n(C)c(=O)c2[nH]cnc21 [IBMX, 3-isobutyl-1-methylxanthine]",increase in sGaw compared with 200 μg salbutamol,comparable with that produced by salbutamol
same,sGaw above the baseline measurement after 30 minutes,20%
same,time until sGaw baseline is reached,one and a half

# Source: US20190231785A1, “PHOSPHODIESTERASE INHIBITOR TREATMENT” (Cyrano Therapeutics, Inc., priority 2012, published 2019)
